From paper PMC5433929, “High-resolution crystal structure of the human CB1 cannabinoid receptor” (Nature, 2016)

Tests used:
CB1-PGS = CB1-PGS (Homo sapiens, UniProt P21554, DEL304-332/H302F/INS301[…]); test: Differential scanning fluorimetry on detergent-solubilized receptor; conditions: 10 μM ligand
Experimental: Differential Scanning Fluorimetry (DSF) assays were performed in 96-well PCR plates using an RT-PCR machine (CFX96, Bio-Rad). Standard assay conditions (25 μL) were 25mM HEPES pH 7.5, 150 mM NaCl, 0.01% LMNG, 0.002% CHS and 10 μM corresponding ligands. The protein concentration was 2 μM and the BODIPY FL-L-cystine dye[38] was added at 2 μM final. All reactions were incubated at 4°C for 20 min before scanning in the PCR machine. The fluorescence was measured at 0.5°C temperature intervals from 4°C to 90°C by using the FAM filter set (450–490 nm excitation, 515–530 nm emission).

CB2 = biological target: CB2; set-up: method as in PMID 17327489; conditions: cited from earlier work
CB1 = biological target: CB1; set-up: method as in PMID 17327489; conditions: cited from earlier work

CB1-PGS, sequence (P21554 with tags, fused parts or gaps INS301[withheld]/H302F/DEL304-332): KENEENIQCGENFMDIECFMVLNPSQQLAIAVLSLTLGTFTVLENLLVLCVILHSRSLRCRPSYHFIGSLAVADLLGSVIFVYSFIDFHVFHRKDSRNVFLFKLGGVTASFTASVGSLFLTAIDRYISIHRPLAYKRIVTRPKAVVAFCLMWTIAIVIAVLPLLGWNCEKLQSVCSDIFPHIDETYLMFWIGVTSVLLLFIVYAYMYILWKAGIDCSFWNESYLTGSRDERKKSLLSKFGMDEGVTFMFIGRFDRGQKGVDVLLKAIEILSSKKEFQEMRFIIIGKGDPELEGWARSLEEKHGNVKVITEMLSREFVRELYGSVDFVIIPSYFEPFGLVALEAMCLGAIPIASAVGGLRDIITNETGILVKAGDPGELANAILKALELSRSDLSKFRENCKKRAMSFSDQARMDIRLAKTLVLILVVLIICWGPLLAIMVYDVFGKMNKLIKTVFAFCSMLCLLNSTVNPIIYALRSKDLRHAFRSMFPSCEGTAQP

C[C@H](NC(=O)C(C)(C)Oc1ccc(C(F)(F)F)cn1)[C@@H](Cc1ccc(Cl)cc1)c1cccc(C#N)c1 [taranabant, N-[(1S,2S)-3-(4-chlorophenyl)-2-(3-cyanophenyl)-1-methylpropyl]-2-methyl-2-{[5-(trifluoromethyl)pyridin-2-yl]oxy}propanamide]
effect on receptor thermostability (DSF) (CB1-PGS): enhanced thermostability | Ki (CB2): 170 nM | Ki (CB1): 0.13 nM
